In patent US8828908B2, “Herbicidally active bicyclic 1,3-dione compounds” (Syngenta Limited, priority 2007, dated 2014):

Experiments:
Assay type in all cases: in vivo
[1] = tested on: Avena fatua (AVEFA); assay: Example B post-emergence herbicidal greenhouse test; details: 360 h, evaluated after 15 days, 100=total damage to plant, 0=no damage
Description: (§1) Seeds of a variety of test species were sown in standard soil in pots. After cultivation for one day (pre-emergence) or after 10 days cultivation (post-emergence) under controlled conditions in a glasshouse, the plants were sprayed with an aqueous spray solution derived from the formulation of the technical active ingredient in 0.6 ml acetone and 45 ml formulation solution containing 10.6% Emulsogen EL (Registry number 61791-12-6), 42.2% N-methylpyrrolidone, 42.2% dipropylene glycol monomethyl ether (Registry number 34590-94-8) and 0.2% X-77 (Registry number 11097-66-8). The test plants were then grown in a greenhouse under optimum conditions until, 15 days later for post-emergence and 20 days for pre-emergence, the test was evaluated (100=total damage to plant; 0=no damage to plant).
(§2) Alopecurus myosuroides (ALOMY), Avena fatua (AVEFA), Lolium perenne (LOLPE), Setaria faberi (SETFA), Digitaria sanguinalis (DIGSA), Echinochloa crus-galli (ECHCG)

[2] = tested on: Digitaria sanguinalis (DIGSA); assay: as above; details: 360 h, evaluated after 15 days, 100=total damage to plant, 0=no damage
Description: as §1, §2

[3] = tested on: Lolium perenne (LOLPE); assay: as above; details: 360 h, evaluated after 15 days, 100=total damage to plant, 0=no damage
Description: as §1, §2

[4] = tested on: Echinochloa crus-galli (ECHCG); assay: as above; details: 360 h, evaluated after 15 days, 100=total damage to plant, 0=no damage
Description: as §1, §2

[5] = tested on: Alopecurus myosuroides (ALOMY); assay: as above; details: 360 h, evaluated after 15 days, 100=total damage to plant, 0=no damage
Description: as §1, §2

[6] = tested on: Setaria faberi (SETFA); assay: as above; details: 360 h, evaluated after 15 days, 100=total damage to plant, 0=no damage
Description: as §1, §2

[7] = tested on: Avena fatua (AVEFA); assay: Example B pre-emergence herbicidal greenhouse test; details: 480 h, evaluated after 20 days, 100=total damage to plant, 0=no damage
Description: as §1, §2

[8] = tested on: Digitaria sanguinalis (DIGSA); assay: Example B pre-emergence herbicidal greenhouse test; details: 480 h, evaluated after 20 days, 100=total damage to plant, 0=no damage
Description: as §1, §2

[9] = tested on: Lolium perenne (LOLPE); assay: Example B pre-emergence herbicidal greenhouse test; details: 480 h, evaluated after 20 days, 100=total damage to plant, 0=no damage
Description: as §1, §2

[10] = tested on: Echinochloa crus-galli (ECHCG); assay: Example B pre-emergence herbicidal greenhouse test; details: 480 h, evaluated after 20 days, 100=total damage to plant, 0=no damage
Description: as §1, §2

[11] = tested on: Alopecurus myosuroides (ALOMY); assay: Example B pre-emergence herbicidal greenhouse test; details: 480 h, evaluated after 20 days, 100=total damage to plant, 0=no damage
Description: as §1, §2

[12] = tested on: Setaria faberi (SETFA); assay: Example B pre-emergence herbicidal greenhouse test; details: 480 h, evaluated after 20 days, 100=total damage to plant, 0=no damage
Description: as §1, §2

Row | Structure (SMILES) | pest or weed control at 125 g/ha [1] [%] | pest or weed control at 125 g/ha [2] [%] | pest or weed control at 125 g/ha [3] [%] | pest or weed control at 125 g/ha [4] [%] | pest or weed control at 125 g/ha [5] [%] | pest or weed control at 125 g/ha [6] [%] | pest or weed control at 250 g/ha [7] [%] | pest or weed control at 250 g/ha [8] [%] | pest or weed control at 250 g/ha [9] [%] | pest or weed control at 250 g/ha [10] [%] | pest or weed control at 250 g/ha [11] [%] | pest or weed control at 250 g/ha [12] [%]
1 | Cc1ccc(-c2cccc(Cl)c2)cc1C1=C(O)[C@H]2CC[C@H](C2)C1=O (single isomer, unassigned) [Compound T7] | 0 | 0 | 0 | 0 | 0 | 0 | 10 | 20 | 0 | 0 | 0 | 10
2 | Cc1ccc(-c2ccc(Cl)c(C(F)(F)F)c2)cc1C1=C(O)[C@H]2CC[C@H](C2)C1=O (single isomer, unassigned) [Compound T8] | 0 | 30 | 0 | 0 | 10 | 30 | 30 | 70 | 50 | 100 | 50 | 70
3 | Cc1ccc(-c2ccc(Cl)c(Cl)c2)cc1C1=C(O)[C@H]2CC[C@H](C2)C1=O (single isomer, unassigned) [Compound T10] | 10 | 0 | 20 | 0 | 10 | 0 | 0 | 30 | 20 | 50 | 50 | 80
4 | COc1cc(Cl)ccc1-c1ccc(C)c(C2=C(O)[C@H]3CC[C@H](C3)C2=O)c1 (single isomer, unassigned) [Compound T11] | 20 | 0 | 0 | 20 | 20 | 10 | 0 | 0 | 10 | 10 | 10 | 10
5 | Cc1ccc(-c2ccc(Cl)cc2Cl)cc1C1=C(O)[C@H]2CC[C@H](C2)C1=O (single isomer, unassigned) [Compound T12] | 10 | 60 | 0 | 70 | 0 | 80 | 40 | 100 | 70 | 40 | 30 | 60
6 | Cc1ccc(-c2ccc(Cl)c(C#N)c2)cc1C1=C(O)[C@H]2CC[C@H](C2)C1=O (single isomer, unassigned) [Compound T25] | 0 | 80 | 0 | 0 | 20 | 30 | 0 | 80 | 20 | 50 | 0 | 80
7 | Cc1ccc(-c2ccc(Cl)cc2C)cc1C1=C(O)[C@H]2CC[C@H](C2)C1=O (single isomer, unassigned) [Compound T26] | 0 | 10 | 10 | 60 | 20 | 60 | 0 | 0 | 20 | 30 | 0 | 50
8 | Cc1ccc(-c2ccc(Cl)cc2F)cc1C1=C(O)[C@H]2CC[C@H](C2)C1=O (single isomer, unassigned) [Compound T27] | 70 | 70 | 30 | 80 | 30 | 90 | 50 | 80 | 70 | 80 | 60 | 100
9 | Cc1ccc(-c2cc(Cl)cc(Cl)c2)cc1C1=C(O)[C@H]2CC[C@H](C2)C1=O (single isomer, unassigned) [Compound T28] | 10 | 0 | 0 | 0 | 20 | 10 | 10 | 0 | 20 | 0 | 0 | 0
10 | Cc1ccc(-c2ccc(F)c(Cl)c2)cc1C1=C(O)[C@H]2CC[C@H](C2)C1=O (single isomer, unassigned) [Compound T29] | 0 | 10 | 0 | 50 | 30 | 60 | 0 | 0 | 20 | 20 | 10 | 70
11 | COc1ccc(Cl)cc1-c1ccc(C)c(C2=C(O)[C@H]3CC[C@H](C3)C2=O)c1 (single isomer, unassigned) [Compound T30] | 10 | 0 | 10 | 0 | 10 | 0 | 0 | 0 | 0 | 0 | 0 | 0
12 | Cc1ccc(-c2ccc(Cl)c(F)c2)cc1C1=C(O)[C@H]2CC[C@H](C2)C1=O (single isomer, unassigned) [Compound T31] | 0 | 70 | 20 | 70 | 30 | 80 | 40 | 70 | 30 | 80 | 70 | 100
